Laboratory results taken from patent US11401555B2, “Genetic polymorphisms associated with stroke, methods of detection and uses thereof” (CELERA CORPORATION, priority 2008, dated 2022).

What was measured:
[1] = Stroke statin response (SSR) in the CARE pravastatin trial: pravastatin-treated versus placebo-treated, by SNP genotype; format: in vivo, human; conditions: for HR (hazard ratio for stroke, pravastatin vs placebo): rs10757274 (hCV26505812), mode GEN, genotype AA, placebo = ref
Source text: (hCV26505812) for association with SSR in CARE (Table 37) and PROSPER (Table 38), including both unadjusted and adjusted analyses (adjusted for factors such as age, gender, smoking status, hypertension, diabetes, BMI, and LDL and HDL levels). Table 37 provides results in CARE, and Table 38 provides results in PROSPER (whether each analysis is unadjusted or adjusted is indicated in the “adjust” column in Table 37, or by “unadj” and “adj” column labels in Tables 38). With respect to Tables 22-32 and 37-38, the columns labeled “Genotype” (in Tables 22-28 and 37), “Geno_Placebo” (in Tables 29-30 and 38), and “Geno_Resp” (in Tables 31-32 and 38) indicate the genotype which the given stroke risk or SSR results correspond to. […] See Example Six below for further information relating to Tables 22-32 and 37-38. […] As used herein, the term “benefit” (with respect to a preventive or therapeutic drug treatment) is defined as achieving a reduced risk for a disease that the drug is intended to treat or prevent (e.g., stroke) by administrating the drug treatment, compared with the risk for the disease in the absence of receiving the drug treatment (or receiving a placebo in lieu of the drug treatment) for the same genotype. The term “benefit” may be used herein interchangeably with terms such as “respond positively” or “positively respond”. For stroke risk and statin response associations based on samples from the CARE and PROSPER trials described herein, stroke risk is assessed by comparing the risk of stroke for a given genotype with the risk of stroke for a reference genotype either in the placebo arm of the trial or in the whole study population of the trial, and statin response is assessed by comparing the risk of stroke in the pravastatin arm of the trial with the risk of stroke in the placebo arm of the trial for the same genotype. […] In CARE, SNPs were analyzed for association with stroke risk or SSR. […] Also in the CARE and PROSPER trials, the chromosome 9p21 SNP […] (hCV26505812) was analyzed further for association with SSR, including unadjusted and adjusted analysis. Adjusted analysis in CARE (Table 37) was adjusted for age, gender, smoking status, hypertension, diabetes, body mass index (BMI), and LDL and HDL levels, and adjusted analysis in PROSPER (Table 38) was adjusted for country, gender, age, LDL, HDL, smoking status (current vs. past or never), history of hypertension, and diabetes. Table 37 provides results in CARE, and Table 38 provides results in PROSPER (whether each analysis is unadjusted or adjusted is indicated in the “adjust” column in Table 37, or by “unadj” and “adj” column labels in Tables 38). All the p-values (including Pint values) provided in Tables 37-38 are two-sided p-values.

[2] = Stroke statin response (SSR) in the PROSPER pravastatin trial: pravastatin-treated versus placebo-treated, by SNP genotype; format: in vivo, human

Q: Which “HR (hazard ratio) for stroke events, pravastatin-treated versus placebo-treated” value ([1]; heterozygous carriers of SNP rs10757274 (chromosome 9p21), adjusted for traditional risk factors) does the source give for `CC[C@H](C)C(=O)O[C@H]1C[C@H](O)C=C2C=C[C@H](C)[C@H](CC[C@@H](O)C[C@@H](O)CC(=O)O)[C@H]21` [pravastatin] here?
A: The value was 0.61.

Q: What about the “HR (hazard ratio for stroke, pravastatin vs placebo)” value ([1]; adjusted (age, male, current smoking, hypertension, diabetes, BMI, baseline LDL, HDL)) of the same compound?
A: Its value is 0.92.

Q: And the “HR (hazard ratio for stroke, pravastatin vs placebo)” value ([1]; unadjusted)?
A: Its value is 0.85.

Q: And the “EVENTS (number of stroke events)” value ([1]; rs10757274, adjusted analysis, mode REC, genotype GA + AA, pravastatin arm, total 1018)?
A: Its value is 47.

Q: And the “HR_RESP (hazard ratio, pravastatin-treated versus placebo-treated)” value ([2]; hCV2091644 rs1010 VAMP8, GENO_RESP CC + CT, MODE DOM, STRATA no hist)?
A: Its value is 0.786.

Q: And the “HR_RESP (hazard ratio, pravastatin-treated versus placebo-treated)” value ([2]; hCV2169762 rs1804689 HPS1, GENO_RESP GG + GT, MODE REC, STRATA hist)?
A: The value was 1.028.

Q: What about the “HR_RESP (hazard ratio, pravastatin-treated versus placebo-treated)” value ([2]; hCV2169762 rs1804689 HPS1, GENO_RESP TT + GT, MODE DOM, STRATA no hist) of the same compound?
A: The value was 1.266.

Q: And the EVENTS_RESP ([2]; hCV2169762 rs1804689 HPS1, GENO_RESP TT, MODE GEN, STRATA hist)?
A: The EVENTS_RESP was 5.

Q: And the “HR_RESP (hazard ratio, pravastatin-treated versus placebo-treated)” value ([2]; hCV29539757 rs10110659 KCNQ3, GENO_RESP CC + AC, MODE REC, STRATA hist)?
A: The value was 1.009.
